Reference: ChEMBL document CHEMBL3507680, “University of Dundee, Gates Library screen for HepG2 cell viability”

Experiment: Human HepG2 cell viability assay in 384 well format
Type: toxicity, cell-based
Set-up: dose 125 nL, time 70.5 hour; concentration not given beside the values
Conditions: HepG2 cells, read-out: Inhibition

Row | SMILES | cytotoxicity at 70.5 h [%]
1 | CCC(C)NC(=O)Nc1cccc(OCC#N)c1 (stereo not drawn) | -12.4
2 | CCOc1ccc2nc(CN3CCC(CN)C3)ccc2c1 (stereo not drawn) | -2.57
3 | CCNC(=O)C1CCCN(c2ccc(C#N)cc2C(F)(F)F)C1 (stereo not drawn) | -4.1
4 | CC(O)CN(CC(=O)NC1CCCCC1)c1ccccc1 (stereo not drawn) | 8.65
5 | Cc1cnn(C2CCCN(C(=O)c3c(C)oc4nc[nH]c(=O)c34)C2)c1 (stereo not drawn) | -9.75
6 | O=C([C@H]1C[C@H]2OCC[C@H]2N(CCc2ccccc2)C1)N1CCCO1 | -3.87
7 | Cn1c(C(=O)N2CCC(CC(N)=O)CC2)c(Cl)c2ccccc21 | 28.2
8 | O=C1[C@H]2CN(C(=O)[C@H]3CCCO3)C[C@H]2CN1CCN1CCCC1 | -9.56
9 | Cc1ccc(CS(=O)(=O)Cc2nc(N)nc(N(C)C)n2)cc1 | 0.995
10 | Cc1ccc(S(=O)(=O)NC2=NCN(CCc3cccs3)CN2)cc1 | -14.3
11 | O=C1CCc2cc(S(=O)(=O)NC(=O)c3ccc4c(c3)CCO4)ccc2N1 | -1.87
12 | CN(C)CCOc1cccc(CN2CCCC3(C2)CN(C)C(=O)O3)c1 (stereo not drawn) | 26
13 | CC(C)Cc1noc(CN2CCCN(C(=O)c3cccc(Cl)c3)CC2)n1 | 23.3
14 | Cn1ncc(N2CCC(CNC(=O)[C@@H](N)c3ccccc3)CC2)cc1=O | -4.64
15 | COCC(=O)N1CCN(c2cc(C)nc(C3CCCN3C(C)=O)c2)CC1 (stereo not drawn) | -0.659
16 | Cc1ccc(C(=O)NCCS(=O)(=O)Cc2ccccc2)c(=O)[nH]1 | -9.89
17 | CCc1ccc(CN(Cc2ccco2)C(C)C(C)C)nc1 (stereo not drawn) | 1.59
18 | Cn1ccn2ncc(C(=O)NCc3cccnc3N3CCCC(O)C3)c12 (stereo not drawn) | -18.3
19 | CS(=O)(=O)N1C[C@@H]2OCC(=O)N(CC3CC3)[C@@H]2C1 | -7.03
20 | Cc1noc(C)c1C(=O)NCCN1CCN(c2ccccc2)CC1 | 1.76
21 | O=C1NCCN(Cc2ccccc2)C1CC(=O)N1CCc2n[nH]cc2C1 (stereo not drawn) | 19.3
22 | CCc1n[nH]c(C2CN(C(=O)c3ccnc(C4CC4)n3)CCO2)n1 (stereo not drawn) | -5.63
23 | CC(C#N)CSc1ccccc1NCC(=O)Nc1ccccc1 (stereo not drawn) | 14.3

Row | SMILES | cytotoxicity at 70.5 h [%]
24 | O=C(CCS(=O)(=O)c1ccccc1)NC1CCOC2(CCOCC2)C1 (stereo not drawn) | -8.45
25 | CC(NC(=O)Nc1ccc(S(C)(=O)=O)cc1)c1ccc2c(c1)CC(=O)N2 (stereo not drawn) | -7.73
26 | O=C(c1c[nH]c(=O)[nH]c1=O)N1CCCC(c2cnccn2)C1 (stereo not drawn) | -2.78
27 | COC(=O)N1CC2(CCNCC2)c2cc(Cl)ccc21 | -7.27
28 | Cc1oc2nc[nH]c(=O)c2c1C(=O)N1CCCC(n2cccn2)C1 (stereo not drawn) | -4.01
29 | Cc1nccn1Cc1nnc(C2CCCN(c3cnccn3)C2)n1C (stereo not drawn) | -18.6
30 | NS(=O)(=O)CCCNC(=O)C1(c2cccc(Cl)c2)CC1 | -22.9
31 | O=C1CN(c2ccc(C(=O)N3CCc4ccccc43)cn2)CCN1 | -6.79
32 | O=C(Nc1cccnc1N1CCSCC1)c1ccc2c(c1)OCO2 | -4.23
33 | COc1ccc(OCCN(C)C(=O)NC(C)c2nncn2C)cc1 (stereo not drawn) | -1.05
34 | CCCC(=O)N1CCN(CC(O)COCC)CC1 (stereo not drawn) | 1.27
35 | CCNC(=O)NCc1nn(CCN2CCCC2)c(=O)c2ccccc12 | -5.36
36 | CS(=O)(=O)N1CCCCCC1C1CCN(c2ncccc2C#N)CC1 (stereo not drawn) | -0.285
37 | CCOC(C)c1nc(COc2nc(C)no2)cs1 (stereo not drawn) | -3.02
38 | CC(=O)N(C)CC(=O)Nc1cnc(-n2ccnc2)nc1 | 0.242
39 | Cn1cccc(NC(=O)NCCOCc2ccccc2)c1=O | -13.2
40 | O=c1cc(N2CCNCC2)cnn1CCc1ccc(F)cc1 | -4.81
41 | CC(C)NC(=O)C1(Cc2ccccc2-c2cncnc2)CCCNC1 (stereo not drawn) | -4.61
42 | CN(C)c1nccc(CNC(=O)NCc2ccco2)n1 | -8.38
43 | CCc1nnsc1C(=O)NCc1nnc2n1CCCCC2 | -3.94
44 | COC(=O)c1ccc(Cl)c(CN(C)Cc2ncnn2C)c1 | 1.01
45 | O=C(Nc1ccccc1Cn1cccn1)N1CCCC(N2CCCC2)C1 (stereo not drawn) | 16.1
46 | CCN(CC)C(=O)c1ccn(COc2cc(C)cc(C)c2)n1 | 4.47

Row | SMILES | cytotoxicity at 70.5 h [%]
47 | CCN1CCn2nc(CCC(=O)N3CCCC3)cc2C1 | -4.63
48 | Cc1csc(C2(NCc3nc(-c4ccco4)oc3C)CCCC2)n1 | 22.8
49 | COc1cnc(C2(O)CCN(C(=O)c3ccccn3)CC2)c(OC)n1 | -13.1
50 | Cc1ccnc(OCC(=O)N2CCC(C(N)=O)CC2)n1 | -4.44
51 | CC(C)(O)c1cn(C2CCN(c3ncccc3Cl)CC2)nn1 | 3.9
52 | COc1ccc(CNC2CCc3ncnn3C2)cc1OCC1CC1 (stereo not drawn) | -14.4
53 | Cc1noc(CN(CCO)Cc2cc(Br)ccc2F)n1 | -1.67
54 | Cc1cn2nc(N3CCCC3Cn3nc(C)nc3C)sc2n1 (stereo not drawn) | -5.44
55 | CN(C)C1CCCN(C(=O)c2cccc(-c3ncc[nH]3)c2)CC1 (stereo not drawn) | -1.63
56 | COc1ncccc1CNCc1c(C(C)C)nn(C)c1OC | -4.91
57 | CC(C)O[C@@H]1CC[C@H]2[C@H]1OCCN2C(=O)c1nn(C)c2ccccc12 | 1.07
58 | c1ccc(-c2ncc(CN3CCC4(CCNCC4)C3)cn2)cc1 | -7.74
59 | CCn1nc(CC(C)C)cc1C(=O)N1CC(N2CCCCC2C)C1 (stereo not drawn) | -2.38
60 | COC(=O)CNC(=O)CSCc1nc(O)c2cc(C)sc2n1 | 4.84
61 | COc1ccc2c(c1)CCCN(CC(=O)NCC1CCCO1)C2 (stereo not drawn) | -5.84
62 | O=C(CCn1c(C(F)(F)F)cc2cccnc21)N1CCOCC1 | 0.815
63 | COc1ccc(OC2CCN(C(=O)c3ccc(C)[nH]c3=O)CC2)cc1 | -5.37
64 | CN(C)C(=O)c1ccc(C2CCCN2C(=O)CCC2=NNC(=O)CC2)s1 (stereo not drawn) | -14.5
65 | COCCN(C)C(C)c1cccc(S(N)(=O)=O)c1 (stereo not drawn) | 0.815
66 | O=C(CCCNc1ncccn1)N1CCCC(n2cccn2)C1 (stereo not drawn) | 34.1
67 | COCCCNC(=O)Nc1cccc(Cl)c1-n1cccn1 | -3.36
68 | Nc1cc(-c2cccs2)nn(CC(=O)N2CCc3ccccc32)c1=O | -2.52
69 | Cn1ccnc1CN1CCC(Cn2cc(-c3ccccc3)nn2)CC1 | 3.07

Row | SMILES | cytotoxicity at 70.5 h [%]
70 | Nc1ncccc1CN1CCOCC1CC(=O)NCc1ccccn1 (stereo not drawn) | 19.3
71 | Cc1nc(CN2CCN(S(=O)(=O)N3CCOCC3)CC2)oc1C | -3.19
72 | CC(C(=O)NC1CC1)S(=O)(=O)Cc1nc(Cc2ccccc2)no1 (stereo not drawn) | -0.763
73 | O=C(N1CCCC1)N1Cc2nccn2CC(COc2cccnc2)C1 (stereo not drawn) | -9.49
74 | Cc1cc(C)n(CC2CCCN2CCc2ccncc2)n1 (stereo not drawn) | 17.9
75 | COc1ccnc(CN2CCCC(CCc3ccc(F)cc3)C2)c1OC (stereo not drawn) | 2.04
76 | Cc1cc(C)n(CC2CCCN2C(=O)c2ccc3[nH]nnc3c2)n1 (stereo not drawn) | 0.633
77 | NC(=O)CN1CCC(NCc2cc(C(F)(F)F)ccc2Cl)CC1 | -4.69
78 | CCc1nc(CNC(C)c2cccc(N3CCCC3=O)c2)cs1 (stereo not drawn) | -12.3
79 | CC(C)Oc1ncc(C(=O)N2CCC(NC(=O)C3CC3)CC2)cc1Cl | 7
80 | CN(CCCNC(=O)c1ccccc1OCC(N)=O)CC(F)(F)F | 1.62
81 | Cc1cc(Oc2ccccc2F)nc(C2CCCCN2)n1 (stereo not drawn) | -6.21
82 | Cc1cc(C)c(CNC(=O)N(C)Cc2cccc(F)c2)c(=O)[nH]1 | 0.933
83 | Cc1cnn(CC(C)NCc2csc(-c3ncccn3)n2)c1 (stereo not drawn) | -2.17
84 | Cc1ncc(CN(C)C(=O)Nc2cccc(C(=O)N3CCOCC3)c2)s1 | -2.6
85 | Cc1nnc(NCC2(c3ccccc3)CC2)c(C#N)c1C | -0.882
86 | CCOCc1cnc2n1CCN(Cc1scnc1C)C2C (stereo not drawn) | -3.25
87 | COc1ccc(C2CNCCN2C(=O)c2nccc3ccccc23)cc1 (stereo not drawn) | 5.97
88 | CCc1nc(C2CCCN2C(=O)c2ccc3c(c2)[nH]c(=O)n3C)no1 (stereo not drawn) | 2.37
89 | CN1C(=O)C2(CCN(CCO)C2)c2ccccc21 (stereo not drawn) | -5.56
90 | CCc1sc(C(=O)Nc2cnn(CC(=O)NC3CC3)c2)cc1C | -8.41
91 | CCN(CC)C1(Cc2cc(COC)on2)COC1 | -0.489
92 | CCC(C)NC(=O)Cn1ccc2sc(C)cc2c1=O (stereo not drawn) | -0.388

Row | SMILES | cytotoxicity at 70.5 h [%]
93 | Cc1cc2nc(CO[C@H]3CN(C4CCCCC4)C[C@H]3F)[nH]c2cc1C | 3.34
94 | COc1ccccc1-c1ccnc2nc(N3CCCCC3)[nH]c(=O)c12 | -15.7
95 | CN(C)C(=O)CO[C@H]1CO[C@@]2(CCN(Cc3ccsc3)C2)C1 | -6.3
96 | Cc1nn(C)c(N2CCOCC2)c1CNC(c1cccs1)C(C)C (stereo not drawn) | 6.88
97 | Cc1cccc(-n2nc(CC(C)C)nc2CCn2ccc(=O)[nH]c2=O)c1 | -2.09
98 | COc1ccccc1-c1ncc(CN2CCCC(CCC(N)=O)C2)s1 (stereo not drawn) | -10.1
99 | Oc1ccc(-c2c(-c3ccccc3)ncn2C[C@H]2CCCN2)cc1 | -2.17
100 | N#Cc1c(N)nc2c(c1C1CCOC1)CCc1cc(O)ccc1-2 (stereo not drawn) | -11.5
101 | NC(=O)CS(=O)(=O)Cc1csc(-c2ccc(F)cc2)n1 | 13.6
102 | O=C(c1cc(=O)n(-c2ccccc2)[nH]1)N1CCCC(c2ccn[nH]2)C1 (stereo not drawn) | 48
103 | CC(C)c1nc(O)c2nnn(C[C@H]3CCCN(Cc4cccs4)C3)c2n1 | 32.6
104 | CC(c1nc(C(C)(C)C)no1)N1CCN(c2ccc(C#N)cn2)CC1 (stereo not drawn) | -13.9
105 | CC(C)C[C@H](NC(=O)N1CCC(Cc2ccccc2)CC1)C(=O)O | -5.66
106 | CC(C)C1CCCN1C(=O)c1ccc(-n2ncc(C#N)c2N)cc1 (stereo not drawn) | -5.76
107 | Cn1cc(CN2CCCN(C(=O)c3ccc4c(c3)COC4)CC2)cn1 | -4.36
108 | COCCN1C[C@@H]2CN(Cc3ccc(C)s3)CCC[C@]2(C(=O)O)C1 | 11.4
109 | COCCCn1ccc(NC2CCOCC2)n1 | -7.45
110 | Cc1cnn(CC2CCCN2C(=O)c2cc(C)nc3[nH]nc(C)c23)c1 (stereo not drawn) | -3.88
111 | CC(OCC1CC1)C(=O)NCc1cccc(CN2CCN(C)CC2)c1 (stereo not drawn) | 5.66
112 | CCc1nc(C2CCCN2CC(=O)Nc2cc(C)on2)no1 (stereo not drawn) | -6.96
113 | Cc1csc(NC(=O)[C@@H]2C[C@H]3[C@H](CCN3S(C)(=O)=O)O2)n1 | -1.16
